Legend:
[1] = system: Plasmodium falciparum; test: Antiplasmodial activity against chloroquine-sensitive Plasmodium falciparum NF54 by lactate dehydrogenase assay; assay type: functional, organism-based
[2] = Cytotoxicity against Chinese hamster CHO cells assessed as reduction in cell viability by MTT assay; assay type: toxicity, cell-based; conditions: Chinese hamster (Cricetulus griseus)
[3] = system: Plasmodium falciparum; test: Antiplasmodial activity against Plasmodium falciparum 3D7 assessed as growth inhibition measured after 72 hrs by SYBR green dye based assay; assay type: functional, organism-based; conditions: 3D7, 72 h
[4] = system: Plasmodium falciparum; test: Antiplasmodial activity against Plasmodium falciparum K1 assessed as growth inhibition measured after 72 hrs by SYBR green dye based assay; assay type: functional, organism-based; conditions: K1, 72 h
[5] = Cytotoxicity against African green monkey Vero cells assessed as reduction in cell viability incubated for 24 hrs by MTT assay; assay type: toxicity, cell-based; conditions: African green monkey (Chlorocebus sabaeus)
[6] = system: Plasmodium falciparum; test: Antiplasmodial activity against Plasmodium falciparum W2 assessed as reduction in plasmodial growth after 48 hrs by fluorescence based analysis; assay type: functional, organism-based; conditions: W2, 48 h
[7] = system: Hemozoin; test: Inhibition of Beta-hematin formation in Plasmodium falciparum 3D7 by spectrophotometric analysis
[8] = system: Hemozoin; test: Inhibition of Beta-hematin formation in Plasmodium falciparum K1 by spectrophotometric analysis
[9] = Cytotoxicity against African green monkey Vero cells assessed as reduction in cell viability incubated for 24 hrs by fluorescence based analysis; assay type: toxicity; conditions: African green monkey (Chlorocebus sabaeus)
[10] = system: Plasmodium falciparum; test: Antimalarial activity against chloroquine-sensitive Plasmodium falciparum 3D7 assessed as reduction in parasite growth incubated for 72 hrs by SYBR Green staining based fluorescence analysis; assay type: functional, organism-based; conditions: 3D7, 72 h

IC50 [1] [nM]	Structure (SMILES)	IC50 [2] [nM]	IC50 [3] [nM]	IC50 [4] [nM]	further results
100	O=C(/C=C/c1ccccc1Br)c1ccc(S(=O)(=O)NCCCNc2cncc3cc(Cl)ccc23)cc1	43200			
	CC(C)CC(CN1CCN(c2ccccc2)CC1)Nc1ccnc2cc(Cl)ccc12 (centres undefined)		521	> 1000	
	CC(CN1CCN(c2ccccc2)CC1)Nc1ccnc2cc(Cl)ccc12 (centres undefined)		538	784	
	CC(CN1CCN(Cc2ccc3c(c2)OCO3)CC1)Nc1ccnc2cc(Cl)ccc12 (centres undefined)		108	71.4	
	CCOC(=O)N1CCN(CCNc2ccnc3cc(Cl)ccc23)CC1		899	162	
330	COc1ccc(/C=C/C(=O)c2ccc(S(=O)(=O)NCCNc3cncc4cc(Cl)ccc34)cc2)cc1OC	45100			
	Clc1ccc2c(NC(Cc3ccccc3)CN3CCN(c4ccccc4)CC3)ccnc2c1 (centres undefined)		> 1000	1100	
	CC(C)CC(CN1CCN(Cc2ccc3c(c2)OCO3)CC1)Nc1ccnc2cc(C(F)(F)F)ccc12 (centres undefined)		22.6	46.5	
	CCC(C)C(CN1CCN(CC)CC1)Nc1ccnc2cc(Cl)ccc12 (centres undefined)		114	502	
	Clc1ccc2c(NCCN3CCN(Cc4ccc5c(c4)OCO5)CC3)ccnc2c1		521	46.5	
	O=C(CN1C(=O)c2ccc(N3CCN(CCO)CC3)cc2C1=O)NCCCCNc1ccnc2cc(Cl)ccc12				IC50 at 24 h [5]: > 177000 nM; IC50 [6]: 860 nM
790	O=C(/C=C/c1cc(F)ccc1F)c1ccc(S(=O)(=O)NCCCNc2cncc3cc(Cl)ccc23)cc1	43700			
	CC(CN1CCN(Cc2ccccc2)CC1)Nc1ccnc2cc(Cl)ccc12 (centres undefined)		405	84	
	O=C(c1ccco1)N1CCN(CCNc2ccnc3cc(Cl)ccc23)CC1		993	4230	
	Clc1ccc2c(NC(Cc3ccccc3)CN3CCN(Cc4ccccc4)CC3)ccnc2c1 (centres undefined)		> 5000	> 5000	
	CCN1CCN(CC(Nc2ccnc3cc(Cl)ccc23)n2ccc3ccccc32)CC1 (centres undefined)		4150	> 5000	
510	O=C(/C=C/c1ccc(OC(F)(F)F)cc1)c1ccc(S(=O)(=O)NCCCNc2cncc3cc(Cl)ccc23)cc1	44000			
	CSCCC(CN1CCN(c2ccccc2)CC1)Nc1ccnc2cc(Cl)ccc12 (centres undefined)		> 5000	> 5000	
1670	O=C(/C=C/c1ccccc1)c1ccc(S(=O)(=O)NCCCNc2cncc3cc(Cl)ccc23)cc1	> 50000			

IC50 [1] [nM]	Structure (SMILES)	IC50 [2] [nM]	IC50 [3] [nM]	IC50 [4] [nM]	further results
110	COc1ccc(/C=C/C(=O)c2ccc(S(=O)(=O)NCCCNc3cncc4cc(Cl)ccc34)cc2)cc1	43300			
690	O=C(/C=C/c1ccc2c(c1)OCO2)c1ccc(S(=O)(=O)NCCCNc2cncc3cc(Cl)ccc23)cc1	34100			
	CC(C)CC(CN1CCN(Cc2ccccc2)CC1)Nc1ccnc2cc(Cl)ccc12 (centres undefined)		154	> 1000	
570	O=C(/C=C/c1ccc(F)cc1)c1ccc(S(=O)(=O)NCCNc2cncc3cc(Cl)ccc23)cc1	14500			
2580	O=C(/C=C/c1ccc(F)c(F)c1)c1ccc(S(=O)(=O)NCCCNc2cncc3cc(Cl)ccc23)cc1	> 300000			
	CN(C)c1ccc(-c2cncn2CCNc2ccnc3cc(Cl)ccc23)cc1				IC50 [7]: 5000 nM; IC50 [8]: 1090 nM
	O=C(CCN1C(=O)c2ccc(N3CCN(CCO)CC3)cc2C1=O)NCCCCCCNc1ccnc2cc(Cl)ccc12				IC50 at 24 h [5]: > 165000 nM; IC50 [6]: 180 nM
	O=C1c2cccc(N3CCCCC3)c2C(=O)N1CCCCNc1ccnc2cc(Cl)ccc12				IC50 at 24 h [9]: 54100 nM
	CCN(CC)CC(Cc1ccccc1)N(C)c1ccnc2cc(C(F)(F)F)ccc12 (centres undefined)				IC50 [10]: 1750 nM
	Clc1ccc2c(NC(CN3CCN(Cc4ccccc4)CC3)n3ccc4ccccc43)ccnc2c1 (centres undefined)		596	529	
	Clc1ccc2c(NCCN3CCN(c4ncccn4)CC3)ccnc2c1		108	277	
540	O=C(/C=C/c1c(F)cccc1F)c1ccc(S(=O)(=O)NCCCNc2cncc3cc(Cl)ccc23)cc1	27600			
	O=C(CCN1C(=O)c2ccc(N3CCN(CCO)CC3)cc2C1=O)NCCCCNc1ccnc2cc(Cl)ccc12				IC50 at 24 h [5]: 169000 nM; IC50 [6]: 140 nM
370	Cc1ccc(/C=C/C(=O)c2ccc(S(=O)(=O)NCCCNc3cncc4cc(Cl)ccc34)cc2)cc1	25100			
	CCN1CCN(CC(CCSC)Nc2ccnc3cc(Cl)ccc23)CC1 (centres undefined)		2660	> 5000	
280	O=C(/C=C/c1ccc(F)cc1)c1ccc(S(=O)(=O)NCCCNc2cncc3cc(Cl)ccc23)cc1	14600			
	O=C(CN1C(=O)c2ccc(N3CCN(CCO)CC3)cc2C1=O)NCCNc1ccnc2cc(Cl)ccc12				IC50 at 24 h [5]: > 186000 nM; IC50 [6]: 1040 nM
	CCOC(=O)N1CCN(CC(CC(C)C)Nc2ccnc3cc(Cl)ccc23)CC1 (centres undefined)		857	412	
	Clc1ccc2c(NCCn3cncc3-c3ccc4ccccc4n3)ccnc2c1				IC50 [7]: 5000 nM; IC50 [8]: 1330 nM
